Measured values as given in patent publication EP0103381B1, “Substituted anthra(1,9-cd)pyrazol-6(2H)-ones” (WARNER-LAMBERT COMPANY, priority 1982, dated 1984).

Tests used:
[1] = system: lymphocytic leukemia P388; test: in vivo lymphocytic leukemia P388 test; set-up: species or system mice; conditions: Mus musculus, P388, ip, 720 h, two single doses four days apart, read-out: T/C × 100 (Percent)
Summary of the method: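 CD2F mice (6–7 per group) were inoculated intraperitoneally with P388 leukemia ascitic cells. Compounds were then given i.p. as two doses four days apart at various levels. Survival over 30 days was expressed as treated/control time ratio, efficacy criterion T/C×100 >125%.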

[2] = system: HCT-8 (human colon adenocarcinoma) cells; test: in vitro activity against human colon adenocarcinoma (HCT-8), cell count; type: cell-based; conditions: Homo sapiens; HCT-8 cells, 60-65 hrs with compound; molar quantity of drug required to kill 50% of the tumor cells; read-out: ID50 Molar
Summary of the method: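 HCT-8 cells seeded at ~30,000 cells/ml in RPMI 1640 + 10% FCS, grown 48 hrs at 37°C, then exposed to compound 60-65 hrs. Lysed cells counted by Coulter counter; activity as percent of controls, reported as ID50 (molar quantity killing 50% of cells).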

[3] = system: B16 Melanoma (B6C3F1); test: broad spectrum antitumor activity in mice, B16 melanoma (B6C3F1); type: in vivo; conditions: I-/IP
From the text: (§1) Broad Spectrum Antitumor Activity^* of 2-[2-(Diethylamino)ethyl]-7,10-dihydroxy-5-[[2-[(2-hydroxyethyl)amino]ethyl]amino]anthra[1-9-cd]pyrazol-6(2H)-one Dihydrochloride in Mice

[4] = system: ADJ—PC6 Plasmacytoma; test: broad spectrum antitumor activity in mice, ADJ-PC6 plasmacytoma; type: in vivo; conditions: IP/IP
From the text: as §1

[5] = system: Colon 38 (BDF1); test: broad spectrum antitumor activity in mice, Colon 38; type: in vivo; conditions: SC/IP, Q01D × 09, Dose 16 mg/kg
From the text: as §1

[6] = system: Penicillium avellaneum; test: agar plate paper-disc inhibition zone screening; type: cell-based; conditions: Hamigera avellanea; Dose 3.0 mg/ml; read-out: Inhibition Zone Diameter mm (Dose mg/ml) P. Avellaneum
Summary of the method: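 Mycelia and spores from a six-day 28°C agar culture, suspended in saline with 0.05% Tween 80 at 20% transmittancy, were seeded into molten agar trays. Compounds at 3,000, 1,000, 500, 100 and 10 mcg/ml (solvent <10%) were applied on 12.7 mm paper discs. After at least 20-24 h incubation, inhibition zone diameter was measured in mm.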

[7] = system: M5076 Ovary; test: broad spectrum antitumor activity in mice, M5076 ovary; type: in vivo; conditions: IP/IP
From the text: as §1

[8] = system: Aerobacter aerogenes; test: agar plate paper-disc inhibition zone screening; type: cell-based; conditions: Klebsiella aerogenes; Dose 1.0 mg/ml; read-out: Inhibition Zone Diameter mm (Dose mg/ml) A. Aerogenes
Summary of the method: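 Overnight bacterial cultures were suspended in 0.85% saline to 20-35% light transmittancy and mixed into molten assay agar poured in trays. Compounds at 3,000, 1,000, 500, 100 and 10 mcg/ml (solvent <10%) were applied to 12.7 mm paper discs; after 18-20 h at 37°C, inhibition zone diameters were measured in mm.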

## CCN(CC)CCn1nc2c3c(c(NCCNCCO)ccc31)C(=O)c1c(O)ccc(O)c1-2 [Example 28, 2-[2-(Diethylamino)ethyl]-7,10-dihydroxy-5-[[2-[(2-hydroxyethyl)amino]ethyl]amino]anthra[1,9-cd]pyrazol-6(2H)-one]
[1]; P388, Dose 0.78 mg/kg intraperitoneally
  response vs control in vivo at 0.78 mg/kg: 140%
[1]; P388, Dose 1.56 mg/kg intraperitoneally
  response vs control in vivo at 1.56 mg/kg: 148%
[1]; P388, Dose 3.12 mg/kg intraperitoneally
  response vs control in vivo at 3.12 mg/kg: 164%
[1]; P388, Dose 6.25 mg/kg intraperitoneally
  response vs control in vivo at 6.25 mg/kg: 180%
[2]
  IC50: 270 nM
[3]; Q01D × 09, Dose 3 mg/kg
  T/C × 100 (Percent): 148%
[3]; Q01D × 09, Dose 6 mg/kg
  T/C × 100 (Percent): 189%
[4]; Q04D × 03, Dose 2 mg/kg
  T/C × 100 (Percent): 207%
[4]; Q04D × 03, Dose 4 mg/kg
  T/C × 100 (Percent): 216%
[4]; Q04D × 03, Dose 8 mg/kg
  T/C × 100 (Percent): 235%
[4]; Q04D × 03, Dose 16 mg/kg
  T/C × 100 (Percent): 163%
[5]
  % Tumor Reduction: 71%
[6]
  zone of inhibition at 3000 µg/mL: 0 mm
[7]; Q04D × 04, Dose 1.25 mg/kg
  T/C × 100 (Percent): 143%
[7]; Q04D × 04, Dose 2.5 mg/kg
  T/C × 100 (Percent): 233%
[7]; Q04D × 04, Dose 5 mg/kg
  T/C × 100 (Percent): 186%
[7]; Q04D × 04, Dose 10 mg/kg
  T/C × 100 (Percent): 260%
[8]
  zone of inhibition at 1000 µg/mL: 14 mm
